# Activity calls are given as the source filed them. The rule behind the calls is not given here.
# Test system: Solanum tuberosum
# Test: Induction of accumulation of trans-cinnamic acid in Solanum tuberosum (potato) tubers at 0.02 to 20 ng/disk after 24 hr relative to laminarin
# Type: functional
row,SMILES,fold change (FC)
1,Nn1c(S)nnc1-c1ccccc1,3

# Molecular target: T1, Trans-cinnamate 4-monooxygenase (Populus kitakamiensis, UniProt Q43054)
# T1 sequence (Q43054 whole entry): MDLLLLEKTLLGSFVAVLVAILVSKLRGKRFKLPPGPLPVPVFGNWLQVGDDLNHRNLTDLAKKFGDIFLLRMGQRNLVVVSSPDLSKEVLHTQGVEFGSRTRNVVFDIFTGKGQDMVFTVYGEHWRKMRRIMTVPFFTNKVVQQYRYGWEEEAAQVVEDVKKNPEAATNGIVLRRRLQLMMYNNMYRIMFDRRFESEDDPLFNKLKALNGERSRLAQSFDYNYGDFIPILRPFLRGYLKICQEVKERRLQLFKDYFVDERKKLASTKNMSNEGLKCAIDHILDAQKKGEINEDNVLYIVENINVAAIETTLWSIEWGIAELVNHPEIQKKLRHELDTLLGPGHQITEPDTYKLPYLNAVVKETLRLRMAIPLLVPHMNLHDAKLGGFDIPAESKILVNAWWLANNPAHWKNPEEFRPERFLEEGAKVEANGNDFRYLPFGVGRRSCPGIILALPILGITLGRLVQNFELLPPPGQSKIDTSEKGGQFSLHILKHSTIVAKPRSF
# Test: Inhibition of Populus sieboldii x Populus grandidentata trans-cinnamate 4-hydroxylase assessed as p-coumaric acid level
row,SMILES,IC50 [µM]
1,Nn1c(-c2ccc(O)cc2)n[nH]c1=S,> 100
2,Nn1c(S)nnc1-c1ccccc1,0.32
3,Nn1c(-c2ccc(Cl)cc2)n[nH]c1=S,> 100
4,Cc1ccc(-c2n[nH]c(=S)n2N)cc1,> 100
5,Nn1c(S)nnc1-c1ccco1,> 100
6,Nn1c(-c2cccc(F)c2)n[nH]c1=S,3.9
7,Nn1c(-c2cccc(Cl)c2)n[nH]c1=S,5

# Now from value to molecule:
row,IC50 [µM],SMILES
1,13,Nn1c(-c2ccncc2)n[nH]c1=S
2,45,Nn1c(-c2cccs2)n[nH]c1=S
3,> 100,Nn1c(-c2ccccc2Cl)n[nH]c1=S
4,45,Nn1c(-c2ccccn2)n[nH]c1=S
5,51,Nn1c(-c2cccnc2)n[nH]c1=S
6,3.6,Cc1cccc(-c2n[nH]c(=S)n2N)c1

# Molecular target: T2, Trans-cinnamate 4-monooxygenase (Populus kitakamiensis) (UniProt Q43054)
# T2 sequence (whole entry): T1 sequence (Q43054 whole entry)
# Test: Mixed-type inhibition of Populus sieboldii x Populus grandidentata trans-cinnamate 4-hydroxylase by Lineweaver-Burk plot analysis
row,SMILES,inhibition
1,Nn1c(S)nnc1-c1ccccc1,Active

# Source: ChEMBL document CHEMBL3045210, “Inhibition of trans-Cinnamate 4-Hydroxylase by 4-Amino-5-aryl-2,3-dihydro-3H-1,2,4-triazole-3-thiones” (J Pestic Sci, 2005)
